The target in this assay is T1, Piezo1 ion channel (Mus musculus, UniProt E2JF22).
T1 construct: expressed in transfected cells; host or cells: HEK293
Briefly: c-Fos immunostaining of cellular activation in HEK293 cells expressing Piezo1. The assay is classed as cell-based. As to conditions: Yoda1 10 µM, Fig. 2, Group F. The procedure:
As a model system, HEK293 cells were utilized, and the Piezo1 ion channel, a mechanosensitive ion channel, was expressed in these cells to enable responsiveness to mechanical forces. To achieve this, 5×10^5 cells were seeded in a 60 mm dish, and 5 µg of CMV-Piezo1 plasmid was transfected using Lipofectamine 3000, following the standard protocol.
HEK293 cells expressing Piezo1 were then exposed to two different ultrasound frequencies, 2.0 MHz and 6.25 MHz, for 10 minutes, corresponding to the resonance frequency(ies) of Piezo1 in HEK293 cells. The objective was to observe differences in cellular activation based on frequency. The extent of cellular activation was quantified by immunostaining for c-Fos, a reporter of intracellular calcium ion influx, and the number of activated cells was represented as a percentage.

T1 sequence (E2JF22 whole entry): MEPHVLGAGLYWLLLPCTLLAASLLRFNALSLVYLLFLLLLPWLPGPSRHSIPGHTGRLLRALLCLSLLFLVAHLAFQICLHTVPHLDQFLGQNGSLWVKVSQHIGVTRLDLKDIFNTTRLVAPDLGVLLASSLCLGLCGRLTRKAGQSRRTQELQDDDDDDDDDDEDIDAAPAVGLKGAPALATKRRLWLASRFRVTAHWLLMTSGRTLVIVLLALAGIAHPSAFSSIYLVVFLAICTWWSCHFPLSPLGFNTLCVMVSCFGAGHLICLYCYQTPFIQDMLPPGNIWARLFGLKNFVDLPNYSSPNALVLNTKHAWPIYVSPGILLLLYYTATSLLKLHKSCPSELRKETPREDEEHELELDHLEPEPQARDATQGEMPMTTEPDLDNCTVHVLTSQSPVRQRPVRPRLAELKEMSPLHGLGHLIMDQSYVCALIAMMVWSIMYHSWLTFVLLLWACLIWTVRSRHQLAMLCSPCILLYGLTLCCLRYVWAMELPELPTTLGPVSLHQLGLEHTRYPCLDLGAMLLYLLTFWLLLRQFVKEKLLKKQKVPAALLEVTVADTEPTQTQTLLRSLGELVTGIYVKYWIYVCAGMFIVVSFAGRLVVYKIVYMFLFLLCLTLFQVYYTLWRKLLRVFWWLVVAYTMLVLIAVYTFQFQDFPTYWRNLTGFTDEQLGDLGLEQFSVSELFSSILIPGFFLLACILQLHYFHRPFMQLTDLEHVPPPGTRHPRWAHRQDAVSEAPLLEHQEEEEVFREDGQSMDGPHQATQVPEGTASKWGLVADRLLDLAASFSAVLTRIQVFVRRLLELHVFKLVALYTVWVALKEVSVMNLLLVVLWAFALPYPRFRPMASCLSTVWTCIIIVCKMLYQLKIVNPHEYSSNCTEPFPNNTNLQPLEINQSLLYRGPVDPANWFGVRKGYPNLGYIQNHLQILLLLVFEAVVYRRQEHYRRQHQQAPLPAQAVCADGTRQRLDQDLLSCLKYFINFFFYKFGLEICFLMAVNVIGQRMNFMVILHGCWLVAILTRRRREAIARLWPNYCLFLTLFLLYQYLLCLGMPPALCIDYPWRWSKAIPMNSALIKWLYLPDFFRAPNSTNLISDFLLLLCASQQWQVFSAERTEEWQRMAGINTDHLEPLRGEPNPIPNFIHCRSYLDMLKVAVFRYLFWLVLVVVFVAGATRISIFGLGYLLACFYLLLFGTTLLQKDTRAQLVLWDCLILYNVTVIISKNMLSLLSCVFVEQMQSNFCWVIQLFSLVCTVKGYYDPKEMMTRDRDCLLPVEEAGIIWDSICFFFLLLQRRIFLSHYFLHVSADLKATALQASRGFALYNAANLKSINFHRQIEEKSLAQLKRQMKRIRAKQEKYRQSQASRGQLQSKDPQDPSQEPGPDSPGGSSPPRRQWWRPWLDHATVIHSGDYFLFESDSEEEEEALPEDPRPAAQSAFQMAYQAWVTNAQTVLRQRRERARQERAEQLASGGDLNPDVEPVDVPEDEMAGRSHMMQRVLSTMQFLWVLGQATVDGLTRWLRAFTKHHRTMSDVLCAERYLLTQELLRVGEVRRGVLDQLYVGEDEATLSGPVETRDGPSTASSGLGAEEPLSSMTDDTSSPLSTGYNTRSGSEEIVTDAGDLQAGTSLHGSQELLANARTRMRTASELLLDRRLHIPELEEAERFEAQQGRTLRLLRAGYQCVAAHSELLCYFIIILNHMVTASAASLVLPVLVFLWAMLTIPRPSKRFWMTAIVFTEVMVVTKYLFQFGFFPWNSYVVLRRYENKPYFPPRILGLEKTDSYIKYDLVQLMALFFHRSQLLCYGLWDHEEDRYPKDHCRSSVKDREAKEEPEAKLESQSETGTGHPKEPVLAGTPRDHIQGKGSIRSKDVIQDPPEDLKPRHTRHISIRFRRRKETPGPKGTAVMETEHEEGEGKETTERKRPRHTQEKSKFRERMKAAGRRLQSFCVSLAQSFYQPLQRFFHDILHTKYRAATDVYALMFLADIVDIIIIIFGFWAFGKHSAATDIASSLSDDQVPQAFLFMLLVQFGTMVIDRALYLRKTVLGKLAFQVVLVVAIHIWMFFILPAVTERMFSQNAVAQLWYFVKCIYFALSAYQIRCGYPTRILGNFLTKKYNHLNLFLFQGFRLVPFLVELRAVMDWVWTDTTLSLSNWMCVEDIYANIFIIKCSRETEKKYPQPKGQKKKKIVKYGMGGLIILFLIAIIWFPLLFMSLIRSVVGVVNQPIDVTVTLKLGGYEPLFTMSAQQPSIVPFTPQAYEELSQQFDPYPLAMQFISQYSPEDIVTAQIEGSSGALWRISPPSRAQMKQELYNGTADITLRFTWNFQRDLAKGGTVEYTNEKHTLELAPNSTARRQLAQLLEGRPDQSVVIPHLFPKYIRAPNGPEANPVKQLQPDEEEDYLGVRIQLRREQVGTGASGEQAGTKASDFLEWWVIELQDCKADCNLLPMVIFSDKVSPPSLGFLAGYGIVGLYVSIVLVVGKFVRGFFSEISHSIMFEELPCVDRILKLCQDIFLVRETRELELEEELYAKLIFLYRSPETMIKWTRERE

On to `Clc1cccc(Cl)c1CSc1nnc(-c2cnccn2)s1` [Yoda1], for which the “activation (percentage of activated cells, c-Fos)” value was 74%.
